Each block holds one molecule with its values, some of them ahead of it. Calls of active or inactive are those of the source. No cut-off for these calls is given here.
What was measured:
[1] = molecular target: Programmed cell death protein 1/Programmed cell death 1 ligand 1 (Homo sapiens, UniProt Q9NZQ7); test: Inhibition of PD-1/PDL1 protein-protein interaction (unknown origin) by HTRF assay; type: protein-complex assay
Jurkat = test: Antiproliferative activity against human jurkat cells assessed as reduction in cell viability incubated for 48 hrs by CCK8 assay; type: functional, cell-based
A549 = test: Antiproliferative activity against human A549 cells assessed as reduction in cell viability incubated for 48 hrs by CCK8 assay; type: functional, cell-based; conditions: A549, 48 h
MDA-MB-231 = test: Antiproliferative activity against human MDA-MB-231 cells assessed as reduction in cell viability incubated for 48 hrs by CCK8 assay; type: functional, cell-based; conditions: MDA-MB-231, 48 h
NCI-H1299 = test: Antiproliferative activity against human H1299 cells assessed as reduction in cell viability incubated for 48 hrs by CCK8 assay; type: functional, cell-based; conditions: NCI-H1299, 48 h
B16-F10 = test: Antiproliferative activity against mouse B16-F10 cells assessed as reduction in cell viability incubated for 48 hrs by CCK8 assay; type: functional, cell-based; conditions: B16-F10, 48 h
Homo sapiens [2] = species on record: Homo sapiens; test: Inhibition of PD1/PDL1 protein-protein interaction in human PBMC-derived CD3-positive T cells co-cultured with human Hep3B cells expressing human PDL1/OS-8 assessed as increase in IFN-gamma secretion measured after 72 hrs by ELISA relative to control; conditions: dose 3.3-10 µM
Homo sapiens [3] = species on record: Homo sapiens; test: Inhibition of PD1/PDL1 protein-protein interaction in human PBMC-derived CD3-positive T cells co-cultured with human Hep3B cells expressing human PDL1/OS-8 assessed as increase in IFN-gamma secretion at 3.3 uM measured after 72 hrs by ELISA relative to control; parameters: scale not given: the % may be the effect or the level left
[4] = molecular target: T1, Protein cereblon/Programmed cell death 1 ligand 1 (Homo sapiens) (UniProt Q9NZQ7+Q96SW2); test: Protac like activity at CRBN/PD-L1 in human MDA-MB-231 cells assessed as reduction in cell surface PD-L1 expression at 1 to 10 uM in presence of MG132 proteasome inhibitor measured after 24 hrs by Western blotting analysis relative to control; type: functional, cell-based; conditions: dose 1-10 µM
T1 sequence (Q96SW2 whole entry, looked up): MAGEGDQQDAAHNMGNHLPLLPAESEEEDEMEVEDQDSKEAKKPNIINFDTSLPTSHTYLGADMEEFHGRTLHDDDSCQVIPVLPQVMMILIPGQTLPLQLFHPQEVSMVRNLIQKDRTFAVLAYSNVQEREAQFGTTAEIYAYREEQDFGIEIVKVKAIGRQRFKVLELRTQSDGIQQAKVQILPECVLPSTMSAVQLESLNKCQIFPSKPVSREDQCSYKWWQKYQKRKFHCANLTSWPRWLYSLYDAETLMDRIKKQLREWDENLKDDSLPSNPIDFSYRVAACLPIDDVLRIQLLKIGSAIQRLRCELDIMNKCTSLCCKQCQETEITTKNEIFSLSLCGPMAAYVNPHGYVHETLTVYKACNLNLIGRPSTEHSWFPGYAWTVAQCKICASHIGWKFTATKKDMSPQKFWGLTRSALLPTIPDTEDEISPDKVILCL
T1 sequence (Q9NZQ7 whole entry, looked up): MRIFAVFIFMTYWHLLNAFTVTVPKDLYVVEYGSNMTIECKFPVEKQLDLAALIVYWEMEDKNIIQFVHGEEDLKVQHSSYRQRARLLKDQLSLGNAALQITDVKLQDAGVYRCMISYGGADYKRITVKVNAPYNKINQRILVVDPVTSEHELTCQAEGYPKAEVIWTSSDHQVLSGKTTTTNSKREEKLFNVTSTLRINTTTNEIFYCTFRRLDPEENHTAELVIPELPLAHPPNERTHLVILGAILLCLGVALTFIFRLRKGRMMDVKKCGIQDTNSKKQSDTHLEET

[5] = molecular target: T1, Protein cereblon/Programmed cell death 1 ligand 1 (Homo sapiens); test: Protac like activity at CRBN/PD-L1 in human MDA-MB-231 cells assessed as reduction in cell surface PD-L1 expression at 1 uM measured after 24 hrs by Western blotting analysis relative to control; type: functional, cell-based; parameters: scale not given: the % may be the effect or the level left
[6] = molecular target: T1, Protein cereblon/Programmed cell death 1 ligand 1 (Homo sapiens); test: Protac like activity at CRBN/PD-L1 in human MDA-MB-231 cells assessed as reduction in cell surface PD-L1 expression at 1 to 10 uM in presence of bafilomycin lysosomal measured after 24 hrs by Western blotting analysis relative to control; type: functional, cell-based; conditions: dose 1-10 µM
[7] = molecular target: T1, Protein cereblon/Programmed cell death 1 ligand 1 (Homo sapiens); test: Protac like activity at CRBN/PD-L1 in human MDA-MB-231 cells assessed as reduction in cell surface PD-L1 expression at 10 uM measured after 24 hrs by Western blotting analysis relative to control; type: functional, cell-based; parameters: scale not given: the % may be the effect or the level left
[8] = molecular target: T1, Protein cereblon/Programmed cell death 1 ligand 1 (Homo sapiens); test: Protac like activity at CRBN/PD-L1 in human MDA-MB-231 cells assessed as reduction in cell surface PD-L1 expression at 10 uM measured after 24 hrs by flow cytometry relative to control; type: functional, cell-based; parameters: scale not given: the % may be the effect or the level left

Programmed cell death protein 1/Programmed cell death 1 ligand 1, sequence (Q15116 whole entry): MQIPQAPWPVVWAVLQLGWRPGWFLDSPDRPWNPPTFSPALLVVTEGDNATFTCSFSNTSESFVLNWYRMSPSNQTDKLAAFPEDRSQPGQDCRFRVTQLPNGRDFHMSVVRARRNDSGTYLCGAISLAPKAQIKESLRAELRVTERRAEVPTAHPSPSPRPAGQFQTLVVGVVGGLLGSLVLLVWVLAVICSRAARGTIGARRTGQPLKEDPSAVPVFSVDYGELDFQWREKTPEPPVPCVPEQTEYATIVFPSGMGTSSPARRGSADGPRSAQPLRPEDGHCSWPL
Programmed cell death protein 1/Programmed cell death 1 ligand 1, sequence (Q9NZQ7 whole entry): as the sequence (Q9NZQ7 whole entry, looked up) above

SMILES: Cc1c(COc2cc(OCc3cccc(C#N)c3)c(CN3CCCCC3C(=O)NCCCCCNc3cccc4c3C(=O)N(C3CCC(=O)NC3=O)C4=O)cc2Cl)cccc1-c1ccccc1 (configuration not stated)
- IC50 [1]: 171 nM

- IC50 (Jurkat): > 11700 nM
- IC50 (A549): > 10000 nM
- IC50 (MDA-MB-231): > 10000 nM
- IC50 (NCI-H1299): > 10000 nM
- IC50 (B16-F10): 10800 nM
SMILES: Cc1c(COc2cc(OCc3cccc(C#N)c3)c(CN3CCCCC3C(=O)N3CCN(C(=O)CCCC(=O)Nc4cccc5c4C(=O)N(C4CCC(=O)NC4=O)C5=O)CC3)cc2Cl)cccc1-c1ccccc1 (configuration not stated)
- IC50 [1]: 26.1 nM

SMILES: Cc1c(COc2cc(OCc3cccc(C#N)c3)c(CN3CCCCC3C(=O)NCCCCCNC(=O)CCCC(=O)Nc3cccc4c3C(=O)N(C3CCC(=O)NC3=O)C4=O)cc2Cl)cccc1-c1ccccc1 (configuration not stated)
- IC50 [1]: > 200 nM

SMILES: Cc1c(COc2cc(OCc3cccc(C#N)c3)c(CN3CCCCC3C(=O)NCCCNc3cccc4c3C(=O)N(C3CCC(=O)NC3=O)C4=O)cc2Cl)cccc1-c1ccccc1 (configuration not stated)
- IC50 [1]: 97.3 nM

SMILES: Cc1c(COc2cc(OCc3cccc(C#N)c3)c(CN3CCCCC3C(=O)NCCNC(=O)CCCC(=O)Nc3ccc4c(c3)C(=O)N(C3CCC(=O)NC3=O)C4=O)cc2Cl)cccc1-c1ccccc1 (configuration not stated)
- IC50 [1]: 102 nM

SMILES: Cc1c(COc2cc(OCc3cccc(C#N)c3)c(CN3CCCCC3C(=O)O)cc2Cl)cccc1-c1ccc2c(c1)OCCO2 (configuration not stated)
- IC50 [1]: 56.6 nM

SMILES: Nc1cccc2c1C(=O)N(C1CCC(=O)NC1=O)C2=O (configuration not stated) [POMALIDOMIDE]
- IC50 [1]: > 10 nM

SMILES: Cc1c(COc2cc(OCc3cccc(C#N)c3)c(CN3CCCCC3C(=O)NCCNC(=O)CCC(=O)Nc3cccc4c3C(=O)N(C3CCC(=O)NC3=O)C4=O)cc2Cl)cccc1-c1ccc2c(c1)OCCO2 (configuration not stated)
- IC50 [1]: > 200 nM

SMILES: Cc1c(COc2ccc(CN3CCCCC3C(=O)N3CCN(C(=O)CCCC(=O)Nc4cccc5c4C(=O)N(C4CCC(=O)NC4=O)C5=O)CC3)cc2Br)cccc1-c1ccccc1 (configuration not stated)
- IC50 [1]: > 200 nM

SMILES: Cc1c(COc2cc(OCc3cccc(C#N)c3)c(CN3CCCCC3C(=O)NCCNc3cccc4c3C(=O)N(C3CCC(=O)NC3=O)C4=O)cc2Cl)cccc1-c1ccccc1 (configuration not stated)
- IC50 [1]: 118 nM

SMILES: Cc1c(COc2cc(OCc3cccc(C#N)c3)c(CN3CCCCC3C(=O)NCCNC(=O)COCC(=O)Nc3cccc4c3C(=O)N(C3CCC(=O)NC3=O)C4=O)cc2Cl)cccc1-c1ccc2c(c1)OCCO2 (configuration not stated)
- IC50 [1]: > 200 nM

SMILES: Cc1c(COc2cc(OCc3cccc(C#N)c3)c(CN3CCCCC3C(=O)NCCNC(=O)CCCC(=O)Nc3cccc4c3C(=O)N(C3CCC(=O)NC3=O)C4=O)cc2Cl)cccc1-c1ccc2c(c1)OCCO2 (configuration not stated)
- IC50 [1]: > 200 nM

SMILES: Cc1c(COc2cc(OCc3cccc(C#N)c3)c(CN3CCCCC3C(=O)NCCNc3cccc4c3C(=O)N(C3CCC(=O)NC3=O)C4=O)cc2Cl)cccc1-c1ccc2c(c1)OCCO2 (configuration not stated)
- IC50 [1]: 144 nM

SMILES: Cc1c(COc2ccc(CN3CCCCC3C(=O)NCCCCNc3cccc4c3C(=O)N(C3CCC(=O)NC3=O)C4=O)cc2Br)cccc1-c1ccccc1 (configuration not stated)
- IC50 [1]: 197 nM

SMILES: Cc1c(COc2cc(OCc3cccc(C#N)c3)c(CN3CCCCC3C(=O)NCCNC(=O)CCC(=O)Nc3cccc4c3C(=O)N(C3CCC(=O)NC3=O)C4=O)cc2Cl)cccc1-c1ccccc1 (configuration not stated)
- IC50 [1]: 98.8 nM

SMILES: Cc1c(COc2ccc(CN3CCCCC3C(=O)NCCNC(=O)CCCC(=O)Nc3cccc4c3C(=O)N(C3CCC(=O)NC3=O)C4=O)cc2Br)cccc1-c1ccccc1 (configuration not stated)
- IC50 [1]: > 200 nM

SMILES: Cc1c(COc2cc(OCc3cccc(C#N)c3)c(CN3CCCCC3C(=O)NCCNC(=O)CCCC(=O)Nc3cccc4c3C(=O)N(C3CCC(=O)NC3=O)C4=O)cc2Cl)cccc1-c1ccccc1 (configuration not stated)
- IC50 [1]: 123 nM

SMILES: Cc1c(COc2cc(OCc3cccc(C#N)c3)c(CN3CCCCC3C(=O)NCCCCCNc3cccc4c3C(=O)N(C3CCC(=O)NC3=O)C4=O)cc2Cl)cccc1-c1ccc2c(c1)OCCO2 (configuration not stated)
- IC50 [1]: 193 nM

- IC50 (Jurkat): > 10000 nM
- IC50 (A549): 9200 nM
- IC50 (MDA-MB-231): > 10000 nM
- IC50 (NCI-H1299): > 10000 nM
- IC50 (B16-F10): 7300 nM
SMILES: Cc1c(COc2cc(OCc3cccc(C#N)c3)c(CN3CCCCC3C(=O)N3CCN(C(=O)CCC(=O)Nc4cccc5c4C(=O)N(C4CCC(=O)NC4=O)C5=O)CC3)cc2Cl)cccc1-c1ccc2c(c1)OCCO2 (configuration not stated)
- IC50 [1]: 25.2 nM

- IC50 (Jurkat): > 10000 nM
- IC50 (A549): > 10000 nM
- IC50 (MDA-MB-231): > 10000 nM
- IC50 (NCI-H1299): 9700 nM
- IC50 (B16-F10): 11400 nM
SMILES: Cc1c(COc2cc(OCc3cccc(C#N)c3)c(CN3CCCCC3C(=O)N3CCN(C(=O)CCC(=O)Nc4cccc5c4C(=O)N(C4CCC(=O)NC4=O)C5=O)CC3)cc2Cl)cccc1-c1ccccc1 (configuration not stated)
- IC50 [1]: 44.5 nM

SMILES: Cc1c(COc2cc(OCc3cccc(C#N)c3)c(CN3CCCCC3C(=O)NCCCNC(=O)CCC(=O)Nc3cccc4c3C(=O)N(C3CCC(=O)NC3=O)C4=O)cc2Cl)cccc1-c1ccccc1 (configuration not stated)
- IC50 [1]: > 200 nM

SMILES: Cc1c(COc2cc(OCc3cccc(C#N)c3)c(CN3CCCCC3C(=O)NCCCNc3cccc4c3C(=O)N(C3CCC(=O)NC3=O)C4=O)cc2Cl)cccc1-c1ccc2c(c1)OCCO2 (configuration not stated)
- IC50 [1]: 135 nM

SMILES: Cc1c(COc2cc(OCc3cccc(C#N)c3)c(CN3CCCCC3C(=O)NCCCCNC(=O)CCCC(=O)Nc3cccc4c3C(=O)N(C3CCC(=O)NC3=O)C4=O)cc2Cl)cccc1-c1ccccc1 (configuration not stated)
- IC50 [1]: 121 nM

SMILES: Cc1c(COc2cc(OCc3cccc(C#N)c3)c(CN3CCCCC3C(=O)NCCCCCCNc3cccc4c3C(=O)N(C3CCC(=O)NC3=O)C4=O)cc2Cl)cccc1-c1ccc2c(c1)OCCO2 (configuration not stated)
- IC50 [1]: > 200 nM

SMILES: Cc1c(COc2cc(OCc3cccc(C#N)c3)c(CN3CCCCC3C(=O)NCCNC(=O)COCC(=O)Nc3cccc4c3C(=O)N(C3CCC(=O)NC3=O)C4=O)cc2Cl)cccc1-c1ccccc1 (configuration not stated)
- IC50 [1]: > 200 nM

- IC50 (Jurkat): > 10000 nM
- IC50 (A549): 8200 nM
- IC50 (MDA-MB-231): > 10000 nM
- IC50 (NCI-H1299): 10500 nM
- IC50 (B16-F10): > 10000 nM
SMILES: Cc1c(COc2cc(OCc3cccc(C#N)c3)c(CN3CCCCC3C(=O)NCCCCNc3cccc4c3C(=O)N(C3CCC(=O)NC3=O)C4=O)cc2Cl)cccc1-c1ccccc1 (configuration not stated)
- IC50 [1]: 52.8 nM

- IC50 (Jurkat): > 10000 nM
- IC50 (A549): > 10000 nM
- IC50 (MDA-MB-231): > 10000 nM
- IC50 (NCI-H1299): > 10000 nM
- IC50 (B16-F10): > 10000 nM
SMILES: Cc1c(COc2cc(OCc3cccc(C#N)c3)c(CN3CCCCC3C(=O)NCCCCNc3cccc4c3C(=O)N(C3CCC(=O)NC3=O)C4=O)cc2Cl)cccc1-c1ccc2c(c1)OCCO2 (configuration not stated)
- IC50 [1]: 103 nM

SMILES: Cc1c(COc2cc(OCc3cccc(C#N)c3)c(CN3CCCCC3C(=O)NCCNC(=O)CCCC(=O)Nc3ccc4c(c3)C(=O)N(C3CCC(=O)NC3=O)C4=O)cc2Cl)cccc1-c1ccc2c(c1)OCCO2 (configuration not stated)
- IC50 [1]: > 200 nM

SMILES: Cc1c(COc2cc(OCc3cccc(C#N)c3)c(CN3CCCCC3C(=O)NCCCCCCNc3cccc4c3C(=O)N(C3CCC(=O)NC3=O)C4=O)cc2Cl)cccc1-c1ccccc1 (configuration not stated)
- IC50 [1]: > 200 nM

- IC50 (Jurkat): > 10000 nM
- Activity (Homo sapiens [2]): Dose-dependent effect
- Activity (Homo sapiens [3]): 215%
- IC50 (A549): > 10000 nM
- IC50 (MDA-MB-231): > 10000 nM
- IC50 (NCI-H1299): > 10000 nM
- IC50 (B16-F10): > 10000 nM
SMILES: Cc1c(COc2cc(OCc3cccc(C#N)c3)c(CN3CCCCC3C(=O)N3CCN(C(=O)CCCC(=O)Nc4cccc5c4C(=O)N(C4CCC(=O)NC4=O)C5=O)CC3)cc2Cl)cccc1-c1ccc2c(c1)OCCO2 (configuration not stated)
- Activity [4]: Active
- Activity [5]: 21%
- Activity [6]: inactive
- Activity [7]: 35%
- Activity [8]: 14%
- IC50 [1]: 39.2 nM
